Measurements: patent US9695155B2, “Herbicidal substituted pyrimidinyloxy benzene compounds” (E. I. DU PONT DE NEMOURS AND COMPANY, priority 2013, dated 2017)

Experiments:
rice = experiment: Test C flooded paddy test; assay type: in vivo, Oryza sativa; conditions: Flood, scale 0 to 100 (0 no effect, 100 complete control), 13 to 15 days
Procedure, shortened: (§1)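 Test compounds are applied straight into paddy water held 3 cm above the soil surface, with that flood maintained for the whole test. After 13 to 15 days in the greenhouse, each species is scored visually relative to controls.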

Italian ryegrass = experiment: Test A postemergence; assay type: in vivo, Lolium multiflorum; conditions: 0 to 100 scale where 0 is no effect and 100 is complete control
Procedure, shortened: (§2)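 Compounds in non-phytotoxic solvent with surfactant applied as soil spray preemergence, or postemergence to plants 2-10 cm at one- to two-leaf stage, in loam/sand. After approximately 10 days in greenhouse, injury rated visually versus untreated controls, 0 (no effect) to 100 (complete control).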

Brazilian crabgrass = experiment: Test E preemergence; assay type: in vivo, Digitaria horizontalis; conditions: for Crabgrass, Brazil plant response rating: scale 0 to 100 (0 no effect, 100 complete control)
Procedure, shortened: (§3)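 Compound in a non-phytotoxic solvent mixture with surfactant was applied preemergence to seeds in silt loam soil, or postemergence to plants 2 to 18 cm tall grown in peat-based potting medium. Plants were kept in a greenhouse for 14 to 21 days, then rated visually against untreated controls on a 0 (no effect) to 100 (complete control) scale.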

ragweed = experiment: Test A preemergence; assay type: in vivo, Ambrosia elatior
Procedure, shortened: as §2

lambsquarters = experiment: Test E preemergence; assay type: in vivo, Chenopodium album; conditions: for Lambsquarters plant response rating: scale 0 to 100 (0 no effect, 100 complete control)
Procedure, shortened: as §3

ducksalad = experiment: Test C flooded paddy test; assay type: in vivo, Heteranthera limosa; conditions: Flood, scale 0 to 100 (0 no effect, 100 complete control), 13 to 15 days
Procedure, shortened: as §1

wild poinsettia = experiment: Test E preemergence; assay type: in vivo, Euphorbia heterophylla; conditions: for Poinsettia, Wild plant response rating: scale 0 to 100 (0 no effect, 100 complete control)
Procedure, shortened: as §3

waterhemp = experiment: Test E preemergence; assay type: in vivo, Amaranthus rudis; conditions: for Waterhemp plant response rating: scale 0 to 100 (0 no effect, 100 complete control)
Procedure, shortened: as §3

yellow nutsedge = experiment: Test E preemergence; assay type: in vivo, Cyperus esculentus; conditions: for Nutsedge, Yellow plant response rating: scale 0 to 100 (0 no effect, 100 complete control)
Procedure, shortened: as §3

goosegrass = experiment: Test E preemergence; assay type: in vivo, Eleusine indica; conditions: for Goosegrass plant response rating: scale 0 to 100 (0 no effect, 100 complete control)
Procedure, shortened: as §3

hairy beggarticks = experiment: Test E preemergence; assay type: in vivo, Bidens pilosa; conditions: for Beggarticks plant response rating: scale 0 to 100 (0 no effect, 100 complete control)
Procedure, shortened: as §3

kochia [1] = experiment: Test E preemergence; assay type: in vivo, Kochia scoparia; conditions: for Kochia plant response rating: scale 0 to 100 (0 no effect, 100 complete control)
Procedure, shortened: as §3

kochia [2] = experiment: Test A postemergence; assay type: in vivo, Kochia scoparia; conditions: 0 to 100 scale where 0 is no effect and 100 is complete control
Procedure, shortened: as §2

barnyardgrass = experiment: Test C flooded paddy test; assay type: in vivo, Echinochloa crus-galli; conditions: Flood, scale 0 to 100 (0 no effect, 100 complete control), 13 to 15 days
Procedure, shortened: as §1

field bindweed = experiment: Test E preemergence; assay type: in vivo, Convolvulus arvensis; conditions: for Field Bindweed plant response rating: scale 0 to 100 (0 no effect, 100 complete control)
Procedure, shortened: as §3

[3] = 125 g ai/ha, scale 0 to 100, 0 no effect, 100 complete control
[4] = 250 g ai/ha, scale 0 to 100, 0 no effect, 100 complete control
[5] = preemergence, 125 g ai/ha, scale 0 to 100, 0 no effect, 100 complete control
[6] = 8 g ai/ha, scale 0 to 100, 0 is no effect, 100 is complete control

## CCOc1cnn(-c2c(C#N)cccc2Oc2ncc(F)cn2)c1 [Compound 89]
rice; 62 g ai/ha
  Plant response rating, Rice: 0
rice; 125 g ai/ha
  Plant response rating, Rice: 0
rice; 250 g ai/ha
  Plant response rating, Rice: 0
Italian ryegrass; 125 g ai/ha
  Plant response rating, Ryegrass, Italian: 0
Italian ryegrass; 500 g ai/ha
  Plant response rating, Ryegrass, Italian: 90
Brazilian crabgrass; 31 g ai/ha
  Crabgrass, Brazil plant response rating: 20
Brazilian crabgrass; 62 g ai/ha
  Crabgrass, Brazil plant response rating: 90
Brazilian crabgrass; [3]
  Plant response rating, Crabgrass, Brazil: 100
Brazilian crabgrass; [4]
  Plant response rating, Crabgrass, Brazil: 100
ragweed; 125 g ai/ha, 0 to 100 scale where 0 is no effect and 100 is complete control
  Plant response rating, Ragweed: 50
ragweed; 500 g ai/ha, 0 to 100 scale, 0 no effect, 100 complete control, approx. 10 days
  Ragweed plant response rating: 70
lambsquarters; 31 g ai/ha
  Lambsquarters plant response rating: 20
lambsquarters; 62 g ai/ha
  Lambsquarters plant response rating: 5
lambsquarters; [3]
  Plant response rating, Lambsquarters: 95
lambsquarters; [4]
  Plant response rating, Lambsquarters: 100
ducksalad; 62 g ai/ha
  Plant response rating, Ducksalad: 0
ducksalad; 125 g ai/ha
  Plant response rating, Ducksalad: 65
ducksalad; 250 g ai/ha
  Plant response rating, Ducksalad: 80
Wild poinsettia; 31 g ai/ha
  Poinsettia, Wild plant response rating: 20
Wild poinsettia; 62 g ai/ha
  Poinsettia, Wild plant response rating: 40
Wild poinsettia; [3]
  Plant response rating, Poinsettia, Wild: 70
Wild poinsettia; [4]
  Plant response rating, Poinsettia, Wild: 85
waterhemp; 31 g ai/ha
  Waterhemp plant response rating: 0
waterhemp; 62 g ai/ha
  Waterhemp plant response rating: 70
waterhemp; [3]
  Plant response rating, Waterhemp: 80
waterhemp; [4]
  Plant response rating, Waterhemp: 100
Yellow nutsedge; 31 g ai/ha
  Nutsedge, Yellow plant response rating: 0
Yellow nutsedge; 62 g ai/ha
  Nutsedge, Yellow plant response rating: 0
Yellow nutsedge; [3]
  Plant response rating, Nutsedge, Yellow: 20
Yellow nutsedge; [4]
  Plant response rating, Nutsedge, Yellow: 35
goosegrass; 31 g ai/ha
  Goosegrass plant response rating: 0
goosegrass; 62 g ai/ha
  Goosegrass plant response rating: 0
goosegrass; [3]
  Plant response rating, Goosegrass: 5
goosegrass; [4]
  Plant response rating, Goosegrass: 50
Hairy beggarticks; 31 g ai/ha, preemergence
  Beggarticks plant response rating: 35
Hairy beggarticks; Preemergence, 62 g ai/ha, scale 0 to 100, 0 no effect, 100 complete control
  Plant response rating, Beggarticks: 60
Hairy beggarticks; [5]
  Plant response rating, Beggarticks: 80
Hairy beggarticks; preemergence, 250 g ai/ha, scale 0 to 100, 0 no effect, 100 complete control
  Plant response rating, Beggarticks: 95
Kochia [1]; 31 g ai/ha
  Kochia plant response rating: 60
Kochia [1]; 62 g ai/ha
  Kochia plant response rating: 75
Kochia [1]; [3]
  Plant response rating, Kochia: 100
Kochia [1]; [4]
  Plant response rating, Kochia: 100
Kochia [2]; 125 g ai/ha
  Plant response rating, Kochia: 80
Kochia [2]; 500 g ai/ha
  Plant response rating, Kochia: 90
barnyardgrass; 62 g ai/ha
  Plant response rating, Barnyardgrass: 0
barnyardgrass; 125 g ai/ha
  Plant response rating, Barnyardgrass: 15
barnyardgrass; 250 g ai/ha
  Plant response rating, Barnyardgrass: 20
Field bindweed; 31 g ai/ha
  Field Bindweed plant response rating: 35
Field bindweed; 62 g ai/ha
  Field Bindweed plant response rating: 75
Field bindweed; [3]
  Plant response rating, Field Bindweed: 95
Field bindweed; [4]
  Plant response rating, Field Bindweed: 90

## Fc1cccc(Oc2ncc(Cl)cn2)c1-n1cc(I)cn1 [Compound 179]
rice; 31 g ai/ha
  Plant response rating, Rice: 0
rice; 62 g ai/ha
  Plant response rating, Rice: 0
rice; 125 g ai/ha
  Plant response rating, Rice: 10
rice; 250 g ai/ha
  Plant response rating, Rice: 10
Brazilian crabgrass; [6]
  Plant response rating, Crabgrass, Brazil: 0
Brazilian crabgrass; 16 g ai/ha
  Crabgrass, Brazil plant response rating: 0
Brazilian crabgrass; 62 g ai/ha
  Crabgrass, Brazil plant response rating: 65
Brazilian crabgrass; [3]
  Plant response rating, Crabgrass, Brazil: 100
lambsquarters; [6]
  Plant response rating, Lambsquarters: 0
lambsquarters; 62 g ai/ha
  Lambsquarters plant response rating: 95
lambsquarters; [3]
  Plant response rating, Lambsquarters: 100
ducksalad; 31 g ai/ha
  Plant response rating, Ducksalad: 20
ducksalad; 62 g ai/ha
  Plant response rating, Ducksalad: 60
ducksalad; 125 g ai/ha
  Plant response rating, Ducksalad: 85
ducksalad; 250 g ai/ha
  Plant response rating, Ducksalad: 95
Wild poinsettia; [6]
  Plant response rating, Poinsettia, Wild: 0
Wild poinsettia; 62 g ai/ha
  Poinsettia, Wild plant response rating: 30
Wild poinsettia; [3]
  Plant response rating, Poinsettia, Wild: 35
waterhemp; [6]
  Plant response rating, Waterhemp: 0
waterhemp; 62 g ai/ha
  Waterhemp plant response rating: 90
waterhemp; [3]
  Plant response rating, Waterhemp: 98
Yellow nutsedge; [6]
  Plant response rating, Nutsedge, Yellow: 0
Yellow nutsedge; 62 g ai/ha
  Nutsedge, Yellow plant response rating: 30
Yellow nutsedge; [3]
  Plant response rating, Nutsedge, Yellow: 30
goosegrass; [6]
  Plant response rating, Goosegrass: 0
goosegrass; 62 g ai/ha
  Goosegrass plant response rating: 35
goosegrass; [3]
  Plant response rating, Goosegrass: 70
Hairy beggarticks; 8 g ai/ha, preemergence, scale 0 to 100, 0 is no effect, 100 is complete control
  Plant response rating, Beggarticks: 0
Hairy beggarticks; 16 g ai/ha, preemergence
  Beggarticks plant response rating: 0
Hairy beggarticks; 62 g ai/ha, preemergence
  Beggarticks plant response rating: 0
Hairy beggarticks; [5]
  Plant response rating, Beggarticks: 0
Kochia [1]; [6]
  Plant response rating, Kochia: 0
Kochia [1]; 62 g ai/ha
  Kochia plant response rating: 25
Kochia [1]; [3]
  Plant response rating, Kochia: 75
barnyardgrass; 31 g ai/ha
  Plant response rating, Barnyardgrass: 0
barnyardgrass; 62 g ai/ha
  Plant response rating, Barnyardgrass: 0
barnyardgrass; 125 g ai/ha
  Plant response rating, Barnyardgrass: 0
barnyardgrass; 250 g ai/ha
  Plant response rating, Barnyardgrass: 0
Field bindweed; [6]
  Plant response rating, Field Bindweed: 0
Field bindweed; 16 g ai/ha
  Field Bindweed plant response rating: 0
Field bindweed; 62 g ai/ha
  Field Bindweed plant response rating: 0
Field bindweed; [3]
  Plant response rating, Field Bindweed: 30
